# Experimental data from US8999655B2, “Increase of myeloid microvesicles in the cerebrospinal fluid as biomarker of microglia/macrophage activation in neurological disorders” (Consiglio Nazionale delle Ricerche, priority 2010, dated 2015).
# Columns and labels:
# [1] = molecular target: T1, acid sphingomyelinase (A-SMase) (Homo sapiens, UniProt P17405); settings: recently identified; mechanism similar to tricyclic antidepressants; cited from earlier work
# T1 sequence (P17405 47-631): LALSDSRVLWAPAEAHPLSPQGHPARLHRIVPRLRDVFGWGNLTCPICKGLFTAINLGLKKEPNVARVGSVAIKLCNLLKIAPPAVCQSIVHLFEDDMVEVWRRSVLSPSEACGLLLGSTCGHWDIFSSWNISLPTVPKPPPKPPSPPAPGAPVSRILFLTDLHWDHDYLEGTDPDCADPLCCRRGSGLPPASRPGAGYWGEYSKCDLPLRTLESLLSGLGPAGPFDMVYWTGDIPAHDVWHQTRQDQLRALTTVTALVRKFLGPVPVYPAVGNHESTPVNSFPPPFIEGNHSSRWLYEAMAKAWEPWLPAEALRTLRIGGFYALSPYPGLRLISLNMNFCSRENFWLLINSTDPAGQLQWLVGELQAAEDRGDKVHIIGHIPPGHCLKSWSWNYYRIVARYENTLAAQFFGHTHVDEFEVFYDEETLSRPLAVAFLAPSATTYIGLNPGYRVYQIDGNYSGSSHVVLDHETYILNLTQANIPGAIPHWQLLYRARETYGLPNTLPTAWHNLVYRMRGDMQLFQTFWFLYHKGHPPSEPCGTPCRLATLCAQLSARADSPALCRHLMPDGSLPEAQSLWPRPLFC
# [2] = tested on: Primary mouse microglia; assay: Release of AnnexinV+ shed vesicles from ATP-stimulated microglia, measured by FACS; assay type: cell-based; settings: FIG. 13
# Description: FIG. 13. FTY720 treatment. Primary mouse microglia was pre-treated, or not, with FTY720, also named fingolimod or Gylenia, currently in course of registration for the treatment of multiple sclerosis, for 30 min., then ATP was added for further 30 min. to induce the release of AnnexinV^+ shed vesicles, as measured by FACS.
# Dendrites of neurons exposed to Aβ1-42-treated-MVs have a frequently fragmented or beaded appearance (FIG. 12D), display abnormal cytoplasmic calcium concentration (FIG. 12A) and reduced responsiveness to glutamate agonists (FIG. 12B). […] Similar detrimental effects are induced in cultured neurons by MVs isolated from AD CSF, pre-incubated with Aβ1-42 (FIG. 12H-I). Finally, primary mouse microglia was pre-treated, or not, with FTY720, also named fingolimod or Gylenia (FIG. 13), currently in course of registration for the treatment of multiple sclerosis, for […], then ATP was added for 30 min. to induce the release of AnnexinV^+ shed vesicles, as measured by FACS. […] Therefore, the number of shed vesicles in the CSF of treated patients represents a biomarker of therapeutic efficacy of MS or other neurological disorders therapeutic treatment.
# [3] = tested on: Cultured hippocampal neurons; assay: Quantification of neuronal damage (PI uptake, annexin-V staining) after Aβ-treated MVs; assay type: cell-based; settings: 20 μM CNQX and 100 μM APV applied together during 1 h exposure to Aβ-treated MVs, read 24 h later
# Description: (§1) FIG. 12. Cultured hippocampal neurons were loaded with the ratiometric calcium dye FURA-2 for 1 h. During FURA-2 loading, neurons were exposed to microglia-derived microvesicles pre-incubated overnight in neuronal medium in the presence or in the absence of Abeta 1-42 (5 μM). Neurons were then wash in Kreb's ringer and resting calcium levels and calcium responsiveness to glutamate agonists (AMPA 100 μM, NMDA 100 μM) were evaluated using a single cell calcium imaging system. […] PI uptake and fragmentation of neuronal cytoskeleton (C) and staining for annexin-V, quantified in F, indicate that Aβ-treated MVs strongly affect neuronal viability. […] I Quantitative analysis of mean amplitude of calcium responses evoked by AMPA or NMDA in control neurons and neurons exposed to Aβ-treated AD MVs.
# Living neurons were exposed annexin-V-FITC, fixed with 4% paraphormaldeyde and counterstained with antibodies direct against the neuronal marker SNAP-25. Apoptotic processes, labelled by annexin-V, were quantified by the Image J software and normalized to SNAP-25 immunoreactivity, as an index of neurite density. […] PI positive nuclei were quantified and normalized to total Hoescht positive nuclei. α-tubulin staining was carried out to evaluate integrity of neuronal cytoskeleton. At least 10 different fields from three independent experiments have been analyzed.
# [4] = tested on: Cultured hippocampal neurons; assay: Calcium imaging (FURA-2) of basal cytosolic calcium in neurons exposed to Aβ-treated MVs; assay type: cell-based; settings: APV and CNQX applied together; FIG. 12G
# Description: as §1
# Polychrome V (TILL Photonics, Grafelfing, Germany) was used as a light source. Fura-2 fluorescence images were collected with a PCO Super VGA SensiCam (Axon Instruments, Forest City, Calif., USA) and analyzed with TILL vision software. […] The ratio values in discrete areas of interest were calculated from sequences of images to obtain temporal analyses. Calcium concentrations were expressed as F340/380 fluorescence ratios.
# [5] = tested on: isolectin IB-4; assay: Specificity of IB4-FITC labelling of MVs shed from N9 microglia (flow cytometry); assay type: binding, Baindeiraea Simplicifolia; settings: melibiose pretreatment, FACS, FIG. 5B
# From the text: (§2) FIG. 5. IB-4 labeling of microglia/macrophage-derived MVs is specific. A. Differential interference contrast microscopy (right panels) and fluorescent images (left panels) of primary microglia labelled in vivo with IB4-FITC.
# (§3) CSF collected from naïve mice or mice exposed to different inflammatory treatments was directly stained with FITC-conjugate Isolectin B4 from Baindeiraea Simplicifolia, (IB4-FITC, SIGMA), and the phosphatydil serine ligand annexin-V in 1% BSA. Specificity of IB4 labelling was evaluated by treating IB4-FITC with 1 M melibiose (6-O-a-D-galactopyranosyl-D-glucose, Sigma M5500) for 30 min before addition to Shed MVs (FIG. 9) as previously described (Ayoub A E et al.). CSF was then diluted in PBS buffer and labelled MVs were acquired within a fixed time interval on a Canto II HTS flow cytometer (Becton Dickinson). Data were analysed using FCS 3 software (Becton Dickinson, Franklin Lakes, N.J., USA). A gate was established on size using beads of 0.5-2 μm. Whithin this gate IB4/annexin-V double positive events (number of events/μl) were evaluated as a parameter of MVs concentration in the CSF. […] IB4 and annexin-V double positive events were evaluated as a parameter of shed MVs concentration while IB4 and CD63 double positive events was evaluated as a parameter of exosome concentration. […]
# [6] = tested on: isolectin IB-4; assay: Specificity of IB4-FITC labelling of primary microglia (fluorescence microscopy); assay type: binding, Baindeiraea Simplicifolia; settings: IB4-FITC pretreated with 1M melibiose, FIG. 5A
# From the text: as §2, §3
compound,measurement,setting,value
CCCCCCCCc1ccc(CCC(N)(CO)CO)cc1 [FTY720],inhibition of A-SMase,[1],inhibitor of A-SMase
same,MP shedding,[2],potently inhibits MP shedding
same,release of AnnexinV+ shed vesicles,"[2]; FTY720 pre-treatment 30 min, then ATP for further 30 min",completely prevented the release of shed vesicles above background levels
same,release of AnnexinV+ shed vesicles,"[2]; FTY720 pre-treatment 18 h, then ATP 30 min",completely prevented the release of shed vesicles above background levels
N#Cc1cc2[nH]c(=O)c(=O)[nH]c2cc1[N+](=O)[O-] [CNQX],"neuronal damage caused by Aβ-treated MVs (PI uptake, annexin-V staining)",[3],strongly prevented
same,increase in cytoplasmic calcium level induced by Aβ-treated MVs,[4],almost completely inhibited
N[C@@H](CCCP(=O)(O)O)C(=O)O [APV],"neuronal damage caused by Aβ-treated MVs (PI uptake, annexin-V staining)",[3],strongly prevented
same,increase in cytoplasmic calcium level induced by Aβ-treated MVs,[4],almost completely inhibited
"OC[C@H]1O[C@H](OC[C@H]2OC(O)[C@H](O)[C@@H](O)[C@@H]2O)[C@H](O)[C@@H](O)[C@H]1O (stereo partly drawn) [melibiose, 6-O-a-D-galactopyranosyl-D-glucose]",IB4-FITC labeling of intact MVs,[5],completely abolished IB4-FITC labeling
same,IB4-FITC binding to the cell surface,[6],completely prevents its binding to the cell surface
